A short description of this series: Particle Size Distribution of zilpaterol hydrochloride batches. Format: physicochemical. The note with it: batches from crystallization process of Examples 4. The source says:
As used herein, particle size refers to a number particle size as measured by conventional particle size measuring techniques well known to those skilled in the art, such as laser scattering, sedimentation field flow fractionation, photon correlation spectroscopy, or disk centrifugation.
The particle size measurement indicated as Particle Size Distribution (relative amounts of particles present, sorted according to size) can be e.g. performed with a Malvern Mastersizer 2000 with the Hydro 2000G measuring cell, or with a Horiba LA-910 laser scattering particle size distribution analyzer.

Values joined by “and” are separate entries in the source; they are usually repeats but may differ in a detail not shown here. Equal values may be shown once.

As to `CC(C)N[C@@H]1CCn2c(=O)[nH]c3cccc(c32)[C@H]1O` (racemic) [Example 3, trans-(±)-4,5,6,7-tetrahydro-7-hydroxy-6-[(1-methylethyl)amino]-imidazo[4,5,1-jk][1]benzazepin-2(1H)-one], the “Particle size Distribution <=15 μm” value (relative amount of crystal particles with size <=15 μm) is 2.9% and 1.6% and 3.0%. Moreover, the “Particle size Distribution >=200 μm” value (relative amount of crystal particles with size >=200 μm) was 7.8% and 14.3% and 11.0%. Moreover, the “Particle size Distribution >=250 μm” value (relative amount of crystal particles with size >=250 μm) is 0.3% and 1.7% and 0.8%. The “Particle size Distribution >=300 μm” value (relative amount of crystal particles with size >=300 μm) was 0% and 0.2%.

The record behind these values is patent publication US8343956B2, “Process for making a crystalline zilpaterol salt” (Intervet International B.V., priority 2008, dated 2013).
